Measured values from ChEMBL document CHEMBL1201862, “PubChem BioAssay data set” (2004).
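Step 1: Grow cells in 96-well plates. Step 2: Expose to compound for 48 hours at 5 concentrations. Step 3: Interpolate endpoints linearly; if unreached, use highest concentration. GI50 = concentration required for 50% inhibition of growth.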 The source made the active and inactive calls. Cut-off read from the data, not from the text of the source: active = GI50 up to about 1.1 µM and inactive = higher.

Tests used:
Assay in all cases: NCI tumour cell line growth inhibition, 48 h
[1] = tested on: SR
[2] = tested on: RXF 393
[3] = tested on: SW-620
[4] = tested on: UACC-62
[5] = tested on: M19-MEL
[6] = tested on: SNB-19
[7] = tested on: TK-10
[8] = tested on: DLD-1
[9] = tested on: UO-31
[10] = tested on: HCC 2998
[11] = tested on: UACC-257
[12] = tested on: KM12
[13] = tested on: HT-29
[14] = tested on: A498
[15] = tested on: IGROV-1
[16] = tested on: 786-0
[17] = tested on: HOP-18
[18] = tested on: OVCAR-8
[19] = tested on: CAKI-1
[20] = tested on: ACHN
[21] = tested on: NCI-H460
[22] = tested on: SK-OV-3
[23] = tested on: SF-539
[24] = tested on: OVCAR-3
[25] = tested on: K562
[26] = tested on: CCRF-CEM
[27] = tested on: MOLT-4
[28] = tested on: SNB-78
[29] = tested on: NCI-H522
[30] = tested on: SF-295
[31] = tested on: HCT-116
[32] = tested on: Malme-3M
[33] = tested on: NCI-H226
[34] = tested on: COLO 205
[35] = tested on: SN12C
[36] = tested on: SF-268
[37] = tested on: DMS-273
[38] = tested on: SK-MEL-2
[39] = tested on: SK-MEL-5
[40] = tested on: NCI-H23
[41] = tested on: A549
[42] = tested on: HL-60
[43] = tested on: EKVX
[44] = tested on: U-251
[45] = tested on: RXF 631
[46] = tested on: RPMI-8226
[47] = tested on: SNB-75
[48] = tested on: LXFL 529
[49] = tested on: SK-MEL-28
[50] = tested on: OVCAR-5
[51] = tested on: KM-20L2
[52] = tested on: HCT-15
[53] = tested on: HOP-62
[54] = tested on: XF498
[55] = tested on: DMS-114
[56] = tested on: OVCAR-4
[57] = tested on: HOP-92
[58] = tested on: M14

`CC1=NN(C(=O)c2cc(Cl)cc([N+](=O)[O-])c2)C(=O)C1/N=N/c1ccccc1C(=O)O` (centres undefined) was tested, and the GI50 [1] was > 100 µM (inactive), the GI50 [2] was > 100 µM (inactive) and the GI50 [3] was > 100 µM (inactive). For the same molecule, the GI50 [4] was 69.5 µM (inactive), the GI50 [5] was > 100 µM (inactive) and the GI50 [6] was > 100 µM (inactive). The GI50 [7] was > 100 µM (inactive), the GI50 [8] was > 100 µM (inactive) and the GI50 [9] was > 100 µM (inactive). The GI50 [10] was > 100 µM (inactive), the GI50 [11] was > 100 µM (inactive) and the GI50 [12] was > 100 µM (inactive). The GI50 [13] was > 100 µM (inactive), the GI50 [14] was > 100 µM (inactive) and the GI50 [15] was > 100 µM (inactive). For the same molecule, the GI50 [16] was > 100 µM (inactive), the GI50 [17] was > 100 µM (inactive) and the GI50 [18] was > 100 µM (inactive). The GI50 [19] was > 100 µM (inactive), the GI50 [20] was > 100 µM (inactive) and the GI50 [21] was > 100 µM (inactive). For the same molecule, the GI50 [22] was > 100 µM (inactive), the GI50 [23] was > 100 µM (inactive) and the GI50 [24] was > 100 µM (inactive). The GI50 [25] was > 100 µM (inactive), the GI50 [26] was > 100 µM (inactive) and the GI50 [27] was > 100 µM (inactive). For the same molecule, the GI50 [28] was > 100 µM (inactive), the GI50 [29] was 36.6 µM (inactive) and the GI50 [30] was > 100 µM (inactive). For the same molecule, the GI50 [31] was > 100 µM (inactive), the GI50 [32] was > 100 µM (inactive) and the GI50 [33] was > 100 µM (inactive). The GI50 [34] was > 100 µM (inactive), the GI50 [35] was > 100 µM (inactive) and the GI50 [36] was > 100 µM (inactive). For the same molecule, the GI50 [37] was > 100 µM (inactive), the GI50 [38] was > 100 µM (inactive) and the GI50 [39] was > 100 µM (inactive). The GI50 [40] was > 100 µM (inactive), the GI50 [41] was > 100 µM (inactive) and the GI50 [42] was > 100 µM (inactive). The GI50 [43] was > 100 µM (inactive), the GI50 [44] was > 100 µM (inactive) and the GI50 [45] was > 100 µM (inactive). The GI50 [46] was > 100 µM (inactive), the GI50 [47] was 75.2 µM (inactive) and the GI50 [48] was > 100 µM (inactive). The GI50 [49] was > 100 µM (inactive) and the GI50 [50] was > 100 µM (inactive).

In the case of `O=C(O)c1cc(=O)c2c([nH]c3ccccc32)s1`, the GI50 [51] was > 100 µM (inactive), the GI50 [2] was > 100 µM (inactive) and the GI50 [3] was > 100 µM (inactive). For the same molecule, the GI50 [4] was > 100 µM (inactive), the GI50 [5] was > 100 µM (inactive) and the GI50 [6] was > 100 µM (inactive). The GI50 [7] was > 100 µM (inactive), the GI50 [8] was > 100 µM (inactive) and the GI50 [9] was > 100 µM (inactive). The GI50 [10] was > 100 µM (inactive), the GI50 [11] was > 100 µM (inactive) and the GI50 [12] was > 100 µM (inactive). For the same molecule, the GI50 [52] was greater than 100 µM, the GI50 [15] was > 100 µM (inactive) and the GI50 [53] was > 100 µM (inactive). The GI50 [16] was > 100 µM (inactive), the GI50 [54] was > 100 µM (inactive) and the GI50 [55] was > 100 µM (inactive). For the same molecule, the GI50 [56] was > 100 µM (inactive), the GI50 [18] was > 100 µM (inactive) and the GI50 [19] was > 100 µM (inactive). For the same molecule, the GI50 [20] was > 100 µM (inactive), the GI50 [21] was > 100 µM (inactive) and the GI50 [22] was > 100 µM (inactive). The GI50 [24] was > 100 µM (inactive), the GI50 [25] was > 100 µM (inactive) and the GI50 [26] was > 100 µM (inactive). For the same molecule, the GI50 [27] was > 100 µM (inactive), the GI50 [28] was > 100 µM (inactive) and the GI50 [29] was > 100 µM (inactive). For the same molecule, the GI50 [30] was > 100 µM (inactive), the GI50 [57] was > 100 µM (inactive) and the GI50 [32] was > 100 µM (inactive). For the same molecule, the GI50 [58] was > 100 µM (inactive), the GI50 [34] was > 100 µM (inactive) and the GI50 [35] was > 100 µM (inactive). The GI50 [36] was > 100 µM (inactive), the GI50 [38] was > 100 µM (inactive) and the GI50 [39] was > 100 µM (inactive). For the same molecule, the GI50 [40] was > 100 µM (inactive), the GI50 [41] was > 100 µM (inactive) and the GI50 [42] was > 100 µM (inactive). For the same molecule, the GI50 [43] was > 100 µM (inactive), the GI50 [45] was > 100 µM (inactive) and the GI50 [46] was > 100 µM (inactive). The GI50 [47] was 56.8 µM (inactive), the GI50 [48] was > 100 µM (inactive) and the GI50 [49] was > 100 µM (inactive). For the same molecule, the GI50 [50] was > 100 µM (inactive).
